Consider 2 compounds from ChEMBL document CHEMBL4610043, “Design, synthesis and identification of novel, orally bioavailable non-covalent Nrf2 activators” (Bioorg Med Chem Lett, 2020).

Usually efflux ratio stands for a quotient of directional permeabilities that is used to spot active efflux. By fraction unbound is commonly meant the share of the substance not bound to proteins or other matrix. By thermodynamic solubility is commonly meant the concentration in solution at equilibrium with solid. As a reminder, the logD is lipophilicity at a set pH, counting ionised and neutral species. For orientation: AUC means concentration integrated over time. One may read the clearance as the rate of elimination divided by the concentration. Low readings indicate inefficient removal, high ones efficient removal. One may read the half-life as the time in which the quantity being followed falls by half. Higher therefore signals slow loss. As usually defined, the Cmax is the highest concentration seen after dosing. A word on the Tmax: it is the time at which the peak concentration occurs. One may read the bioavailability as the share of a dose that reaches the circulation, judged against a reference dose that is usually intravenous. A higher bioavailability goes with good availability.

Converted amounts (≈) assume the structure as drawn.

The nature of data set [1]: Efflux ratio of apparent permeability in MDCK-MDR1 cells. The format is ADME, cell-based, Canis lupus familiaris. The note with it: dog.
Data set [2] is described as follows: Protein binding in mouse plasma assessed as unbound fraction at 2 uM by rapid equilibrium dialysis method. The class given is ADME, cell-free. For orientation: Equilibrium dialysis compares concentrations on both sides of a semipermeable membrane.
Data set [3] is described as follows: Protein binding in rat plasma assessed as unbound fraction at 2 uM by rapid equilibrium dialysis method. The class given is ADME, cell-free.
The nature of data set [4]: Protein binding in human plasma assessed as unbound fraction at 2 uM by rapid equilibrium dialysis method. The class given is ADME, cell-free.
Data set [5] is described as follows: Protein binding in mouse brain assessed as unbound fraction. The format is ADME, tissue-based.
The nature of data set [6]: Aqueous solubility of compound at pH 6.8 by shake flask method. The class given is physicochemical. The note with it: buffer.
Data set [7] can be described thus: Distribution coefficient, log D of compound at pH 7.4 by shake flask method. The format is physicochemical. The note with it: octanol/water.
Data set [8] can be described thus: AUC in rat at 1 mg/kg, iv. The format is ADME, organism-based. The note with it: in vivo.
Data set [9] is described as follows: Clearance in rat at 1 mg/kg, iv. The note with it: in vivo. The format is ADME, organism-based.
Data set [10] can be described thus: Volume of distribution at steady state in rat at 1 mg/kg, iv. The note with it: in vivo, read-out: Vdss. The format is ADME, organism-based.
A short description of data set [11]: Half life in rat at 1 mg/kg, iv. The class given is ADME, organism-based. The note with it: in vivo.
Data set [12] is described as follows: AUC in rat at 5 mg/kg, po. The note with it: in vivo. The format is ADME, organism-based.
The nature of data set [13]: Cmax in rat at 5 mg/kg, po. The format is ADME, organism-based. On the set-up: dose 5 mg/kg, route oral. The note with it: in vivo.
Data set [14] is described as follows: Tmax in rat at 5 mg/kg, po. The format is ADME, organism-based. The note with it: in vivo.
Data set [15] in a line: Oral bioavailability in rat at 5 mg/kg. The note with it: in vivo. The class given is ADME, organism-based.
Data set [16] is described as follows: Unbound brain to plasma concentration ratio in mouse. The class given is ADME. The note with it: brain and plasma, read-out: K(p,uu,brain).
Data set [17] in a line: Cmax in C57BL/6 mouse at 10 mg/kg, po. The format is ADME, organism-based. On the set-up: dose 10 mg/kg, route oral. The note with it: in vivo.
Data set [18] can be described thus: fCmax In C57BL/6 mouse at 10 mg/kg, po. The class given is ADME, organism-based. The note with it: in vivo.

In the case of `CCn1nnc2c(C)c([C@H](c3ccc4c(c3)CN(C(=O)c3c(C)c(C)cc(C)c3C)CC4)C(C)(C)C(=O)O)ccc21`, in data set [1], the efflux ratio was found to be 104.
With `CCn1nnc2c(C)c([C@@H](CC(=O)O)c3ccc4c(c3)CN(C(=O)c3c(C)c(C)cc(C)c3C)CC4)ccc21`, the fraction unbound at 2 µM came out at 0.00505 in data set [2], 0.00568 in data set [3] and 0.00708 in data set [4]. The fraction unbound in [5] stood at 0.0211. In [6], this compound came in with a thermodynamic solubility of 29.5 µg/mL (≈ 56.2 µM). The compound further had a log distribution coefficient (logD) in data set [7] of 1.39. Besides, the AUC in data set [8] is 2510 ng·h/mL; in [12], 2720 ng·h/mL. This compound displayed a clearance in data set [9] of 6.16 mL/min/kg. Besides, in [10], the Vd turned out to be 0.707 L/kg. The half-life in data set [11] was 3.77 h. Besides, the maximum concentration (Cmax) in data set [13] was determined as 958 ng/mL; in data set [17], 6.7 µM. Also, the time to peak (Tmax) in [14] stood at 0.92 h. In data set [15], this compound returned a bioavailability of 20%. Moreover, the Kp uu in [16] is 0.04. In [18], this compound gave a fCmax of 33 nM.
